Reference: patent publication US5019647A, “Gastrin releasing peptide antagonist” (Merck & Co., Inc., priority 1988, dated 1991)
Residues, ends and D or L forms follow the SMILES beside them. *: point of attachment. X1 = CCOC[C@H](CC(C)C)N*

Experiments:
GRP receptor on SCLC = biological target: T1, GRP receptor on SCLC (Homo sapiens, UniProt P30550); experiment: Procedure D: Stimulation of Ca2+ Release in SCLC (Fura-2 fluorescence, GRP 14-27 challenge); assay type: cell-based; settings: H345 SCLC cells; 100 nM GRP14-27; read-out: blocks the Ca2+ response elicited by GRP14-27, IC50
T1 construct: approximately 1×10^8 H345 SCLC cells; endogenous in cells; host or cells: H345 SCLC cells
T1 sequence (P30550 whole entry): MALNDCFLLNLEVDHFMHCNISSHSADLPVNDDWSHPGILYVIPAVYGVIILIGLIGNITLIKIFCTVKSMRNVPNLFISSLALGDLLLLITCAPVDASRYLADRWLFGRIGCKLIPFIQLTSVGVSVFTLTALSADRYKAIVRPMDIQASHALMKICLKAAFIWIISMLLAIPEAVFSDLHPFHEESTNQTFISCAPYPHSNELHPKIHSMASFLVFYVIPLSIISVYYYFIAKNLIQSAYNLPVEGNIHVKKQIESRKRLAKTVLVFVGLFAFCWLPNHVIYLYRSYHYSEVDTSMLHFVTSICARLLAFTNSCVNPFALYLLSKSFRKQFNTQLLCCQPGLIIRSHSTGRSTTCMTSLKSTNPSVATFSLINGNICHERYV
Experimental: Following the procedure of Heikkila et al., J Biol. Chem. 262 16456 (1987), approximately 1×10^8 H345 SCLC cells, maintained in RPMI-1640 (Ro) medium supplemented with selenium, insulin, and transferrin, were harvested by settling and washed with Ro. They were then resuspended in 2 ml Ro, to which 1.2 nmol Fura-2/AM per 10^6 cells was added. After a 15 minute incubation at 37° C., the cells were diluted to 10 ml with Ro and incubated for 1 hour at 37° C., the cells were then centrifuged and resuspended in HEPES-saline (140 mM NaCl, 5mM KCl, 5mM glucose, 1 mM CaCl2, 1 mM MgCl2, 20 mM HEPES, pH 7.4) at a density of 2.5-5×10^6 cells/ml. The cells were kept on ice for up to 2 hours before being used. Ca^2+ measurements were performed at 37° C. in an Aminco SPF-500 fluorimeter. The excitation wavelength was 340 nm, the emission wavelength 510 nm. Two ml of cell suspension was periodically resuspended in a 3 ml plastic cuvette. They were equilibrated at 37° for at least 5 minutes data was collected. After a stable baseline was established, the compound of interest was added, and data was collected for approximately 5 minutes. […] The cells were then lysed with 4 μl 10% Triton X-100 to measure peak fluorescence. Baseline fluorescence was measured after the subsequent addition of 40 μl 2M tris (pH 9.5) and 64 μl 0.2M EGTA.

Swiss 3T3 cells = experiment: Procedure C: Mitogenesis Inhibition (GRP-stimulated 3H-thymidine incorporation); assay type: cell-based; settings: 3 nM human GRP, read-out: blocks mitogenic stimulation of human GRP, IC50
Experimental: (§1) The activity of the peptide derivatives of the present invention as GRP antagonists was determined in competitive binding assays with a radio-active GRP derivative. Swiss 3T3 fibroblasts were used in these tests as the source of GRP receptor. Because these cells respond to GRP binding with a rapid increase in DNA synthesis, compounds that bind to the GRP receptor can also be tested for their ability to stimulate DNA synthesis. New DNA synthesis is one of the early steps in cell division and is widely accepted as a measure of mitogenicity or cell growth. […] Compounds which block DNA synthesis are mitogenic antagonists.
Swiss 3T3 cells were grown in monolayer culture in 24 -well plates (Costar) in serum-free DMEM for 48 hours, at which time the GRP or a GRP homologue, the antagonist and 23 nM ^3 H-thymidine were added. After an additional 48 hours, the cell monolayer was washed twice with PBS, and the cells were then removed with 1 ml 10×trypsin containing 5 mM EDTA. The cells were harvested with a Skatron filter apparatus, and the filters counted in a scintillation counter.

GRP receptor = biological target: T2, GRP receptor (Mus musculus, UniProt P21729); experiment: Procedure A: Binding Inhibition Studies (competitive binding with [3H-Phe15] GRP15-27); settings: Swiss 3T3 cells; [3H-Phe15] GRP15-27 at 3 nM; 60 minutes at 15° C.; read-out: blocks binding of the radioligand, IC50
T2 construct: Swiss 3T3 fibroblasts were used in these tests as the source of GRP receptor; endogenous in cells; host or cells: Swiss 3T3 cells (intact confluent monolayers), obtained from Dr. K. Brown
T2 sequence (P21729 whole entry): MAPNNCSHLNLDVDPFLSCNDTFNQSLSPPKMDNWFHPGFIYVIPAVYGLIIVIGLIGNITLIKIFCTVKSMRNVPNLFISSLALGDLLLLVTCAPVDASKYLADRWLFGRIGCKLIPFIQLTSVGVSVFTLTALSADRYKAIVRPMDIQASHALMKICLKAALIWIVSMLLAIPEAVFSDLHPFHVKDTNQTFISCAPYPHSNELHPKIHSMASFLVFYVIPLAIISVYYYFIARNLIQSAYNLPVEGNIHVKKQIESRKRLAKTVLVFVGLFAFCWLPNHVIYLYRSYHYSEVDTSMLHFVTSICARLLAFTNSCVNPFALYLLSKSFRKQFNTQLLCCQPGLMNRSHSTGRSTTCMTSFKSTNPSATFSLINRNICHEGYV
Experimental: as §1
Swiss 3T3 cells, obtained from Dr. K. Brown (Institute of Animal Physiology, Cambridge, U.K.), were grown to confluency in Costar 12 well plates containing DMEM (Gibco) supplemented with 10% fetal bovine serum, 2 mM glutamine and 1% penicillin-streptomycin. The cells were washed twice with binding buffer [1:1 DMEM: Waymouths MB752/1 medium, plus 1 mg/ml BSA (Fraction V, Calbiochem)]. The antagonist was dissolved in 10 mM HCl, and diluted to the appropriate concentration in binding buffer. The antagonist was then added to the cells, followed by [3H-Phe^15 ] GRP15-27 at a final concentration of 3 nM. […]

CCOC[C@H](CC(C)C)NC(=O)[C@H](Cc1c[nH]cn1)NC(=O)CNC(=O)[C@@H](NC(=O)[C@H](C)NC(=O)[C@H](Cc1c[nH]c2ccccc12)NC(=O)[C@H](Cc1c[nH]cn1)NC(C)=O)C(C)C [Example 1, Ac-His-Trp-Ala-Val-Gly-His-NHCHCH2 OCH5] (Ac-HWAVGH-X1)
IC50 (GRP receptor on SCLC): ~300 nM
IC50 (Swiss 3T3 cells): ~20 nM
IC50 (GRP receptor): ~5 nM
